The text below walks through data of US20180243421A1, “IMMUNOSTIMULATING AGENT” (AJINOMOTO CO., INC., priority 2015, published 2018).

The series has as its system anti-OVA-specific IgE antibody. The settings on record: mouse, in vivo. A digest of the protocol: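 Female BALB/c mice (8-week-old, N=6) were immunized dorsal-subcutaneously with OVA (5 or 10 μg) alone or with adjuvants (Alum, Addavax™, CpG 5 μg, MPL 5 μg, or test lipid 0.256 μmol in 5% αCD saline), boosted one week later. Serum anti-OVA IgE was measured by capture ELISA with HRP-labeled OVA, read at OD 450 nm against a standard curve.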

In the case of `CCCCCCCCCCCCCCCC(=O)NC(=N)NCCCCN` [SZ62, N-hexadecanoylagmatine], the “allergy inducing activity as compared to aluminum hydroxide gel adjuvant” value is listed as “lower allergy inducing activity”; the “allergy inducing activity as compared to aluminum hydroxide gel adjuvant and Addavax” value is reported as “lower allergy inducing activity”.

Regarding `CCCCCCCCCCCCCCCCCCC(CCCCCCCCCCCCCCCCCC)C(=O)N[C@@H](CC(C)C)C(=O)OC` [SZ86, N-(2-octadecyleicosanoyl)-L-leucine methyl ester], the “allergy inducing activity as compared to Addavax” value is given as “low allergy inducing activity” and the “anti-OVA-specific IgE antibody production as compared to the OVA single administration group” value is on record as “a significant increase in the anti-OVA-specific IgE antibody production was not observed”.

On to `CCCCCCCCCCCCCCCC(=O)N[C@@H](CC(C)C)C(=O)N(CC)CC` [SZ92, N^2-hexadecanoyl-N^1,N^1-diethyl-L-leucinamide], for which the “allergy inducing activity as compared to Addavax” value is given as “low allergy inducing activity” and the “anti-OVA-specific IgE antibody production as compared to the OVA single administration group” value is on record as “a significant increase in the anti-OVA-specific IgE antibody production was not observed”.

For `CCCCCCCCCCCCCCCC(=O)N[C@@H](CC(C)C)C(=O)OCCCCCC` [SZ97, N-hexadecanoyl-L-leucine hexyl ester], the “allergy inducing activity as compared to Addavax” value is given as “low allergy inducing activity” and the “anti-OVA-specific IgE antibody production as compared to the OVA single administration group” value is “a significant increase in the anti-OVA-specific IgE antibody production was not observed”.

With `CCCCCCCCCCCCCCCC(=O)N[C@@H](CCCNC(=N)N)C(=O)OCCCCCC.Cl` [SZ99, N^2-hexadecanoyl-L-arginine hexyl ester hydrochloride salt], the “allergy inducing activity as compared to Addavax” value is “low allergy inducing activity” and the “anti-OVA-specific IgE antibody production as compared to the OVA single administration group” value is given as “a significant increase in the anti-OVA-specific IgE antibody production was not observed”.

For the molecule `CCCCCCCCCCCCCCCCCCCCCC(=O)N[C@@H](CCC(=O)O)C(=O)N(CC)CC` [SZ106, N^2-docosanoyl-N^1,N^1-diethyl-L-glutamic acid 1-amide], the “allergy inducing activity as compared to Addavax” value is listed as “low allergy inducing activity” and the “anti-OVA-specific IgE antibody production as compared to the OVA single administration group” value is “a significant increase in the anti-OVA-specific IgE antibody production was not observed”.

Consider `CCCCCCCCCCCCCCCCCCCCCC(=O)NC(=N)NCCCCN.Cl` [SZ108, N-docosanoylagmatine hydrochloride salt], for which the “allergy inducing activity as compared to Addavax” value was “low allergy inducing activity” and the “anti-OVA-specific IgE antibody production as compared to the OVA single administration group” value is “a significant increase in the anti-OVA-specific IgE antibody production was not observed”.
